These results are taken from patent US8268859B2, “Glucocorticoid mimetics, methods of making them, pharmaceutical compositions and uses thereof” (Boehringer Ingelheim International GmbH, priority 2008, dated 2012).

The first experiment has as its target T1, human glucocorticoid receptor (GR) complex (Homo sapiens, UniProt P04150).
T1 construct: made in house; host or cells: insect expression system (baculovirus lysate)
T1 sequence (P04150 1-777): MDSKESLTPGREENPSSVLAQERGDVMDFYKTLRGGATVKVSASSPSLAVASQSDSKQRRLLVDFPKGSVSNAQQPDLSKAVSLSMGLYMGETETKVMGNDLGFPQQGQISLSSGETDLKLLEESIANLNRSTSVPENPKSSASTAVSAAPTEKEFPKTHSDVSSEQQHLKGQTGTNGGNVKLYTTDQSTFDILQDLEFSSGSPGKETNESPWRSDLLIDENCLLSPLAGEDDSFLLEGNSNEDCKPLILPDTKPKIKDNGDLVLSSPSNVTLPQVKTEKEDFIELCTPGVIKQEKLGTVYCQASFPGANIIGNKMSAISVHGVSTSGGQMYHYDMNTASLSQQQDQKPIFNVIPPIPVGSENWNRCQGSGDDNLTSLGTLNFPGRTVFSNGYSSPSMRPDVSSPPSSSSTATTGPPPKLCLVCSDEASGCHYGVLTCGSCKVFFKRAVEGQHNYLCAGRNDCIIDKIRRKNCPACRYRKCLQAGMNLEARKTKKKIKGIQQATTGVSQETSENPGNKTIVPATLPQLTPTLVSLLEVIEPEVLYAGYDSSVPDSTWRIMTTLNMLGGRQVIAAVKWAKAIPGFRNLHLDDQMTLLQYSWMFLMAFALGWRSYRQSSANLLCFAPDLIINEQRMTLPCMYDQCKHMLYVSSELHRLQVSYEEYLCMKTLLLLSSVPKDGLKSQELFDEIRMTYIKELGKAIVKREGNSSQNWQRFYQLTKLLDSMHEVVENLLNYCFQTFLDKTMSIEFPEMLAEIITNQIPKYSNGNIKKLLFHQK
Description: Glucocorticoid receptor fluorescence polarization competitive binding assay.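 Further: GR complex expressed in an insect system, wells lacking compound give full signal, excess unlabeled dexamethasone defines the blank, IC50 from logistic curve fit of polarization.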
Settings: not given
As for `CC(C)(CC(O)(Cc1cc2cc(S(C)(=O)=O)ncc2[nH]1)C(F)(F)F)c1cc(Cl)ccc1S(C)(=O)=O` (stereo not drawn) [4-(5-Chloro-2-methanesulfonylphenyl)-1,1,1-trifluoro-2-(5-methanesulfonyl-1H-pyrrolo[2,3-c]pyridin-2-ylmethyl)-4-methylpentan-2-ol], the IC50 is 0.01 µM.

Staying with this experiment, now noted: Table 1; competition with TAMRA-labeled dexamethasone; read-out: GR IC50.
On to `CC(C)(CC(O)(Cc1cc2cc(S(C)(=O)=O)ncc2[nH]1)C(F)(F)F)c1cc(F)ccc1S(C)(=O)=O` (stereo not drawn) [1,1,1-Trifluoro-4-(5-fluoro-2-methanesulfonylphenyl)-2-(5-methanesulfonyl-1H-pyrrolo[2,3-c]pyridin-2-ylmethyl)-4-methylpentan-2-ol], for which the half-inhibitory concentration (IC50) was determined as 0.019 µM.
As to `CCCS(=O)(=O)c1cc2cc(CC(O)(CC(C)(C)c3cc(F)ccc3S(C)(=O)=O)C(F)(F)F)[nH]c2cn1` (stereo not drawn) [1,1,1-Trifluoro-4-(5-fluoro-2-methanesulfonylphenyl)-4-methyl-2-[5-(propane-1-sulfonyl)-1H-pyrrolo[2,3-c]pyridin-2-ylmethyl]pentan-2-ol], the IC50 stood at 0.013 µM.
The same measure, in the same setting: the figure for `CC(C)S(=O)(=O)c1cc2cc(CC(O)(CC(C)(C)c3cc(F)ccc3S(C)(=O)=O)C(F)(F)F)[nH]c2cn1` (stereo not drawn) [1,1,1-Trifluoro-4-(5-fluoro-2-methanesulfonylphenyl)-4-methyl-2-[5-(propane-2-sulfonyl)-1H-pyrrolo[2,3-c]pyridin-2-ylmethyl]pentan-2-ol] is 0.071 µM.
On the same count and under the same terms, then `CCS(=O)(=O)c1cc2cc(CC(O)(CC(C)(C)c3ccccc3S(C)(=O)=O)C(F)(F)F)[nH]c2cn1` (stereo not drawn) [2-(5-Ethanesulfonyl-1H-pyrrolo[2,3-c]pyridin-2-ylmethyl)-1,1,1-trifluoro-4-(2-methanesulfonylphenyl)-4-methylpentan-2-ol], with 0.044 µM; and `CCS(=O)(=O)c1cc2cc(CC(O)(CC(C)(C)c3cccc(F)c3S(C)(=O)=O)C(F)(F)F)[nH]c2cn1` (stereo not drawn) [2-(5-Ethanesulfonyl-1H-pyrrolo[2,3-c]pyridin-2-ylmethyl)-1,1,1-trifluoro-4-(3-fluoro-2-methanesulfonylphenyl)-4-methylpentan-2-ol], with 0.055 µM.
The same measure, in the same setting: the figure for `CCS(=O)(=O)c1cc2cc(CC(O)(CC(C)(C)c3ccc(C)cc3C(N)=O)C(F)(F)F)[nH]c2cn1` (stereo not drawn) [2-[3-(5-Ethanesulfonyl-1H-pyrrolo[2,3-c]pyridin-2-ylmethyl)-4,4,4-trifluoro-3-hydroxy-1,1-dimethylbutyl]-5-methylbenzamide] is 0.08 µM.
For the molecule `CCS(=O)(=O)c1cc2cc(CC(O)(CC(C)(C)c3ccccc3S(N)(=O)=O)C(F)(F)F)[nH]c2cn1` (stereo not drawn) [2-[3-(5-Ethanesulfonyl-1H-pyrrolo[2,3-c]pyridin-2-ylmethyl)-4,4,4-trifluoro-3-hydroxy-1,1-dimethylbutyl]benzenesulfonamide], the IC50 was 0.14 µM.
Same read-out and setting: then `CC(C)(C[C@@](O)(Cc1cc2nc(S(C)(=O)=O)ccc2[nH]1)C(F)(F)F)c1ccccc1C(N)=O` [2-[(R)-4,4,4-Trifluoro-2-hydroxy-3-(5-meethanesulfonyl-1H-pyrrolo[3,2-b]pyridin-2-ylmethyl)-1,1-dimethylbutyl]benzamide], with 0.032 µM; and `CC(C)(CC(O)(Cc1cc2cc(S(C)(=O)=O)ncc2[nH]1)C(F)(F)F)c1cc(F)ccc1Br` (stereo not drawn) [4-(2-Bromo-5-fluorophenyl)-1,1,1-trifluoro-2-(5-methanesulfonyl-1H-pyrrolo[2,3-c]pyridin-2-ylmethyl)-4-methylpentan-2-ol], with 0.006 µM.
Still for that read-out and setting: then `CC(C)(CC(O)(Cc1cc2cc(S(C)(=O)=O)ncc2[nH]1)C(F)(F)F)c1cc(F)ccc1O` (stereo not drawn) [4-Fluoro-2-[4,4,4-trifluoro-3-hydroxy-3-(5-methanesulfonyl-1H-pyrrolo[2,3-c]pyridin-2-ylmethyl)-1,1-dimethylbutyl]phenol], with 0.025 µM; and `CCS(=O)(=O)c1cc2cc(CC(O)(CC(C)(C)c3cc(C)ccc3C(N)=O)C(F)(F)F)[nH]c2cn1` (stereo not drawn) [4-Methyl-2-[4,4,4-trifluoro-3-hydroxy-3-(5-ethanesulfonyl-1H-pyrrolo[2,3-c]pyridin-2-ylmethyl)-1,1-dimethylbutyl]benzamide], with 0.038 µM.
